Source: PMC4919555 (EBioMedicine, 2016)
Read-outs that look alike come from different tables or passages of the source.

Key:
[1] = system: M. tuberculosis clinical isolates; format: cell-based
[2] = system: M. tuberculosis wild-type, katG-null and katG-overexpressing strains; format: cell-based

With `NNC(=O)c1ccncc1` [INH, isoniazid] the “Ratio (MIC relative to H37Rv)” value ([1]; CI1, − 15 C/T inhA) was 6, the “Ratio (MIC relative to H37Rv)” value ([1]; CI2, − 15 C/T inhA) was 3 and the “Ratio (MIC relative to H37Rv)” value ([1]; CI3, − 15 C/T inhA) was 3. The “Response of katG-null mutant” value [2] was “resistant” and the “Response of katG-overexpressing strain” value ([2]; 3.6 μM (0.5 μg/ml), 4 days) was “more sensitive compared to the wild-type strain”.
For `Cc1csc([C@](C)(O)c2nnc(Nc3ccn(Cc4csc(C)n4)n3)s2)n1` [GSK693, (S)-1-(4-methylthiazol-2-yl)-1-(5-((1-((2-methylthiazol-4-yl)methyl)-1H-pyrazol-3-yl)amino)-1,3,4-thiadiazol-2-yl)ethanol], the “Killing of katG-null mutant strain” value [2] was “killed equally well as the wild-type strain”.
